# Laboratory results reported in patent US10351522B2, “Sulfonamide derivative and pharmaceutically acceptable acid addition salt thereof” (UNIVERSITY OF TSUKUBA, priority 2015, dated 2019).
# Read-outs that look alike come from different tables or passages of the source.
# Experiments:
# [1] = biological target: T1, human OX2R (Homo sapiens, UniProt O43614); assay: Agonist activity against OX2R: intracellular calcium (Fura-2AM, FDSS7000) in CHOOX2R cells; format: cell-based; conditions: relative to orexin-A as full agonist (100%)
# T1 construct: expressed in transfected cells; host or cells: CHO (Chinese hamster ovary) cells, line CHOOX2R, co-expressing NFAT-luciferase
# T1 sequence (O43614 1-444): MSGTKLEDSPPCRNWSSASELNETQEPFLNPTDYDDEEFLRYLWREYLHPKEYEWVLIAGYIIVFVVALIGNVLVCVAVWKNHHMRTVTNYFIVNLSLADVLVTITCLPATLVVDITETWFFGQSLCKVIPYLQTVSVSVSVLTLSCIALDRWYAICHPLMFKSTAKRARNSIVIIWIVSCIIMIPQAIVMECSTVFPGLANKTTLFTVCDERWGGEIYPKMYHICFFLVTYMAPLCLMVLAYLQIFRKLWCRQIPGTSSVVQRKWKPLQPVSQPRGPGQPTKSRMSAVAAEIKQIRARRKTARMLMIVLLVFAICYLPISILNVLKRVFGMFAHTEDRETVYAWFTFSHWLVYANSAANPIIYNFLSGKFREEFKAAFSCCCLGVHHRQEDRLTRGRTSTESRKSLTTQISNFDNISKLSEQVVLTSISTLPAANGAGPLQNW
# How it was run: (§1)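 CHO cells stably expressing human OX1R or OX2R (plus NFAT-luciferase) were loaded with 5 μM Fura-2AM for 60 min, then given compound at 10^−7 to 10^−5 M final (1% DMSO). Calcium change read as 340/380 nm excitation fluorescence ratio; response expressed as % of orexin-A maximal activity at 10, 1.0 and 0.1 μM.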
# [2] = biological target: T2, human OX1R (Homo sapiens, UniProt O43613); assay: Agonist activity against OX1R: intracellular calcium (Fura-2AM, FDSS7000) in CHOOX1R cells; format: cell-based; conditions: relative to orexin-A as full agonist (100%); for Emax at 0.1 µM / Emax at 1 µM / Emax at 10 µM: read-out: Response (%) OX1R
# T2 construct: expressed in transfected cells; host or cells: CHO (Chinese hamster ovary) cells, line CHOOX1R, co-expressing NFAT-luciferase
# T2 sequence (O43613 1-425): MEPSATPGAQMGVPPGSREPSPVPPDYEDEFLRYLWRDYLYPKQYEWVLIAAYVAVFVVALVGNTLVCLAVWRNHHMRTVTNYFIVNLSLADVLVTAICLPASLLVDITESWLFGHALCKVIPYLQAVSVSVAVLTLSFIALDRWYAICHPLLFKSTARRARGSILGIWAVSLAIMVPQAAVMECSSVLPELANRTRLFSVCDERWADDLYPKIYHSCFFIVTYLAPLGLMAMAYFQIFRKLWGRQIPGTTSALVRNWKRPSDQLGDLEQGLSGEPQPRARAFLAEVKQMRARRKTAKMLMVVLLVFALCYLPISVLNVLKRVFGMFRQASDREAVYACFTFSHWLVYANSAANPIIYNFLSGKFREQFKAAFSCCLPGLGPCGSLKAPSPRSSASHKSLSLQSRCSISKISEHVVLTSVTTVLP
# How it was run: as §1
SMILES,Response (%) OX2R ([1]; test compound 0.1 μM),Response (%) OX2R ([1]; test compound 1.0 μM),Response (%) OX2R ([1]; test compound 10 μM),Response (%) OX2R ([1]; 0.1 μM test compound),Response (%) OX2R ([1]; 1.0 μM test compound),Response (%) OX2R ([1]; 10 μM test compound),Response (%) OX1R ([2]; 0.1 μM test compound),Response (%) OX1R ([2]; 1.0 μM test compound),Response (%) OX1R ([2]; 10 μM test compound),also measured
COc1ccc(C(=O)N(C)C)cc1S(=O)(=O)Nc1cccc(NC(=O)Nc2ccccc2N(C)C)c1 [Example 114],<5%,<5%,28%,–,–,–,–,–,–,Response (%) OX1R ([2]; test compound 0.1 μM): <5%; Response (%) OX1R ([2]; test compound 1.0 μM): <5%; Response (%) OX1R ([2]; test compound 10 μM): <5%
"COc1ccc(-c2cccc(C(=O)N(C)C)c2)cc1S(=O)(=O)Nc1cccc(NC(=O)Nc2ccccc2)c1 [Example 37, 4′-methoxy-N,N-dimethyl-3′-(N-(3-(3-phenylureido)phenyl)sulfamoyl)-[1,1′-biphenyl]-3-carboxamide]",–,–,–,55%,88%,81%,–,–,–,Emax at 0.1 µM ([2]; 0.1 μM test compound): < 5%; Emax at 1 µM ([2]; 1.0 μM test compound): < 5%; Emax at 10 µM ([2]; 10 μM test compound): < 5%
"COc1ccc(C(=O)NCc2ccccc2)cc1S(=O)(=O)Nc1cccc(NC(=O)Nc2ccc(N(C)C)cc2)c1 [Example 108, N-benzyl-3-(N-(3-(3-(4-(dimethylamino)phenyl)ureido)phenyl)sulfamoyl)-4-methoxybenzamide]",6%,6%,24%,–,–,–,–,–,–,Emax at 0.1 µM ([2]; test compound 0.1 μM): < 5%; Emax at 1 µM ([2]; test compound 1.0 μM): < 5%; Emax at 10 µM ([2]; test compound 10 μM): < 5%
COc1ccc(-c2cccc(C(=O)N(C)C)c2)cc1S(=O)(=O)Nc1cccc(N2CCCCN(c3cccc(N(C)C)c3)C2=O)c1 [Example 136],144%,97%,94%,–,–,–,–,–,–,Response (%) OX1R ([2]; test compound 0.1 μM): <5%; Response (%) OX1R ([2]; test compound 1.0 μM): 78%; Response (%) OX1R ([2]; test compound 10 μM): 110%
COc1ccc(-c2cccc(C(=O)N(C)C)c2)cc1S(=O)(=O)Nc1cccc(NC(=O)c2ccc3ccccc3c2)c1 [Example 9],–,–,–,<5%,41%,47%,5%,6%,5%,–
CCN(Cc1ccccc1)C(=O)c1ccc(OC)c(S(=O)(=O)Nc2cccc(NC(=O)Nc3cccc(N(C)C)c3)c2)c1 [Example 101],20%,89%,111%,–,–,–,–,–,–,Response (%) OX1R ([2]; test compound 0.1 μM): <5%; Response (%) OX1R ([2]; test compound 1.0 μM): <5%; Response (%) OX1R ([2]; test compound 10 μM): <5%
"COc1ccc(-c2cccc(C(=O)N(C)C)c2)cc1S(=O)(=O)Nc1cccc(NCc2ccccc2)c1 [Example 20, 3′-(N-(3-(benzylamino)phenyl)sulfamoyl)-4′-methoxy-N,N-dimethyl-[1,1′-biphenyl]-3-carboxamide]",–,–,–,<5%,51%,78%,–,–,–,Emax at 0.1 µM ([2]; 0.1 μM test compound): < 5%; Emax at 1 µM ([2]; 1.0 μM test compound): < 5%; Emax at 10 µM ([2]; 10 μM test compound): 17%
COc1ccc(-c2cccc(C(=O)N(C)C)c2)cc1S(=O)(=O)Nc1cccc(N2CCN(c3cccc(N(C)C)c3)C2=O)c1 [Example 130],64%,99%,106%,–,–,–,–,–,–,Response (%) OX1R ([2]; test compound 0.1 μM): <5%; Response (%) OX1R ([2]; test compound 1.0 μM): <5%; Response (%) OX1R ([2]; test compound 10 μM): 6%
COc1ccc(-c2cccc(C(=O)N(C)C)c2)cc1S(=O)(=O)Nc1cccc(NC(=O)Nc2cccc(C(=O)N(C)C)c2)c1 [Example 49],–,–,–,26%,89%,92%,<5%,<5%,<5%,–
COc1ccc(-c2cccc(C(=O)N(C)C)c2)cc1S(=O)(=O)Nc1cccc(NC(=O)Nc2ccc(NC(=NC(=O)OC(C)(C)C)NC(=O)OC(C)(C)C)cc2)c1 [Example 58],–,–,–,<5%,<5%,63%,<5%,<5%,<5%,–

# Continued, in another order:
Response (%) OX2R ([1]; test compound 0.1 μM),Response (%) OX2R ([1]; test compound 1.0 μM),Response (%) OX2R ([1]; test compound 10 μM),Response (%) OX2R ([1]; 0.1 μM test compound),Response (%) OX2R ([1]; 1.0 μM test compound),Response (%) OX2R ([1]; 10 μM test compound),Response (%) OX1R ([2]; 0.1 μM test compound),Response (%) OX1R ([2]; 1.0 μM test compound),Response (%) OX1R ([2]; 10 μM test compound),SMILES,also measured
–,–,–,13%,79%,88%,<5%,<5%,14%,COc1cccc(Nc2cccc(NS(=O)(=O)c3cc(-c4cccc(C(=O)N(C)C)c4)ccc3OC)c2)c1 [Example 32],–
–,–,–,<5%,10%,72%,<5%,<5%,<5%,COc1ccccc1Nc1cccc(NS(=O)(=O)c2cc(-c3cccc(C(=O)N(C)C)c3)ccc2OC)c1 [Example 31],–
–,–,–,<5%,37%,54%,<5%,<5%,12%,COc1ccccc1CNc1cccc(NS(=O)(=O)c2cc(-c3cccc(C(=O)N(C)C)c3)ccc2OC)c1 [Example 21],–
–,–,–,<5%,9%,41%,<5%,<5%,13%,COc1ccc(-c2cccc(C(=O)N(C)C)c2)cc1S(=O)(=O)Nc1cccc(NC(=O)c2ccc(C)cc2)c1 [Example 17],–
–,–,–,37%,92%,87%,<5%,<5%,50%,COc1ccc(Nc2cccc(NS(=O)(=O)c3cc(-c4cccc(C(=O)N(C)C)c4)ccc3OC)c2)cc1OC [Example 33],–
–,–,–,<5%,10%,58%,<5%,<5%,<5%,COc1ccc(C(=O)Nc2cccc(NS(=O)(=O)c3cc(-c4cccc(C(=O)N(C)C)c4)ccc3OC)c2)cc1 [Example 19],–
<5%,56%,89%,–,–,–,–,–,–,COc1ccc(-c2cccc(C(=O)N(C)C)c2)cc1S(=O)(=O)Nc1cccc(NS(=O)(=O)Nc2cccc(C)c2)c1 [Example 90],Response (%) OX1R ([2]; test compound 0.1 μM): <5%; Response (%) OX1R ([2]; test compound 1.0 μM): <5%; Response (%) OX1R ([2]; test compound 10 μM): <5%
